Patent US20110044938A1 (NYCOMED GMBH, priority 2006, published 2011)

Experiments:
[1] = test system: subclones of RKO colon adenocarcinoma cells (RKOp27 or RKOp21) arrested by Ponasterone A; assay: Alamar Blue cell viability assay, cell cycle specific mode of action: cells arrested by ectopic p27Kip1 induced by Ponasterone A versus proliferating cells; type: cell-based; conditions: Homo sapiens, RKO p27 induced (arrested) cells, 10 μM Ponasterone A, 72 hours, value = class bound given in Table A, read-out: −logIC50 RKO p27 induced (arrested) (converted)
Method: To determine the cell cycle specific mode of action, subclones of RKO colon adenocarcinoma cells (RKOp27 or RKOp21 as described by Schmidt et al. in Oncogene 19, 2423-2429; 2000) are seeded into 96 well flat bottom plates at a density of 15000 cells per well in a volume of 50 μl per well in DMEM growth medium with 10% FCS containing 10 μM Ponasterone A. 24 hours after seeding the 50 μl each of the compound dilutions in DMEM medium are added into each well of the 96 Well plate. Each compound dilution is tested as quadruplicates. Wells containing untreated control cells are filled with 50 μl DMEM medium containing 1% DMSO. The cells are then incubated with the substances for 72 hours at 37° C. in a humidified athmosphere containing 5% carbon dioxide. To determine the viability of the cells, 10 μl of an Alamar Blue solution (Biosource) are added and the fluorescence was measured at an extinction of 544 nm and an emission of 590 nm. For the calculation of the cell viability the emission value from untreated cells is set as 100% viability and the emission rates of treated cells are set in relation to the values of untreated cells. Viabilities are expressed as % values. Viability is compared of proliferating cells grown in the absence of the inducer Ponasterone A, versus viability of cells arrested by the expression of ectopic p27Kip1 induced by Ponasterone A.
(§1) Representative −log IC50 [mol/l] values for anti-proliferation/cytotoxicity determined in the mentioned assays follow from the following table A, in which the numbers of the compound correspond to the numbers of the examples.

[2] = test system: RKO (RKOp27) human colon adenocarcinoma cells; assay: Alamar Blue cell viability assay, anti-proliferative/cytotoxic activity on proliferating RKO subclones; type: cell-based; conditions: RKOp27, 72 h, RKO p27 uninduced (proliferating) cells, value = class bound given in Table A, read-out: −logIC50 RKO p27 uninduced (proliferating) (converted)
Method: The anti-proliferative/cytotoxic activity of the compounds described herein, can be tested on subclones of RKO (RKOp27) human colon adenocarcinoma cells (Schmidt et al., Oncogene 19, 2423-2429; 2000) using the Alamar Blue cell viability assay (described in O'Brien et al. Eur J Biochem 267, 5421-5426, 2000). The compounds are dissolved as 20 mM solutions in dimethylsulfoxide (DMSO) and subsequently diluted in semi-logarithmic steps. DMSO dilutions are further diluted 1:100 into Dulbecco's modified Eagle's medium (DMEM) containing 10% fetal calf serum to a final concentration twice as much as the final concentration in the test. RKO subclones are seeded into 96 well flat bottom plates at a density of 5000 cells per well in a volume of 50 μl per well. 24 hours after seeding the 50 μl each of the compound dilutions in DMEM medium are added into each well of the 96 Well plate. Each compound dilution is tested as quadruplicates. Wells containing untreated control cells are filled with 50 μl DMEM medium containing 1% DMSO. The cells are then incubated with the substances for 72 hours at 37° C. in a hunified atmosphere containing 5% carbon dioxide. To determine the viability of the cells, 10 μl of an Alamar Blue solution (Biosource) are added and the fluorescence is measured at an extinction of 544 nm and an emission of 590 nm. For the calculation of the cell viability the emission value from untreated cells is set as 100% viability and the emission rates of treated cells are set in relation to the values of untreated cells. Viabilities are expressed as % values.
The corresponding IC50 values of the compounds for anti-proliferative/cytotoxic activity are determined from the concentration-effect curves.
as §1

IC50 [1]	SMILES	IC50 [2]
≥ 100 µM	COCCOC(=O)OC1CCc2c(sc(NC(=O)/C=C/c3cccnc3)c2C#N)C1 (stereo not drawn) [Example 27, Carbonic acid 3-cyano-2-((E)-3-pyridin-3-yl-allanoylamino)-4,5,6,7-tetrahydro-benzo[b]thiophen-6-yl ester 2-methoxy-ethyl ester]	≤ 0.501 µM
≥ 100 µM	N#Cc1c(NC(=O)/C=C/c2cccnc2)sc2c1CCC(COC(=O)NCCO)C2 (stereo not drawn) [Example 29, (2-Hydroxy-ethyl)-carbamic acid 3-cyano-2-((E)-3-pyridin-3-yl-allanoylamino)-4,5,6,7-tetrahydro-benzo[b]thiophen-6-ylmethyl ester]	0.501 to 2 µM
≥ 100 µM	N#Cc1c(NC(=O)/C=C/c2cccnc2)sc2c1CCC(COC(=O)NCCn1ccnc1)C2 (stereo not drawn) [Example 30, (2-Imidazol-1-yl-ethyl)-carbamic acid-3-cyano-2-((E)-3-pyridin-3-yl-allanoylamino)-4,5,6,7-tetrahydro-benzo[b]thiophen-6-ylmethyl ester]	0.501 to 2 µM
≥ 100 µM	CCOc1ccccc1/C=C/C(=O)Nc1sc2c(c1C#N)CCC(COC(=O)NCCn1ccnc1)C2 (stereo not drawn) [Example 32, (2-Imidazol-1-yl-ethyl)-carbamic acid 3-cyano-2-[(E)-3-(2-ethoxy-phenyl)-allanoylamino]-4,5,6,7-tetrahydro-benzo[b]thiophen-6-ylmethyl ester]	0.501 to 2 µM
≥ 100 µM	N#Cc1c(NC(=O)/C=C/c2cccnc2)sc2c1CCC(OC(=O)NCCn1ccnc1)C2 (stereo not drawn) [Example 37, (2-Imidazol-1-yl-ethyl)-carbamic acid 3-cyano-2-((E)-3-pyridin-3-yl-allanoylamino)-4,5,6,7-tetrahydro-benzo[b]thiophen-6-yl ester]	0.501 to 2 µM
≥ 100 µM	Cn1cc(CNC(=O)OC2CCc3c(sc(NC(=O)/C=C/c4cccnc4)c3C#N)C2)cn1 (stereo not drawn) [Example 41, (1-Methyl-1H-pyrazol-4-ylmethyl)-carbamic acid 3-cyano-2-((E)-3-pyridin-3-yl-allanoylamino)-4,5,6,7-tetrahydro-benzo[b]thiophen-6-yl ester]	≤ 0.501 µM
≥ 100 µM	Cn1ccnc1CNC(=O)OCC1CCc2c(sc(NC(=O)/C=C/c3cccnc3)c2C#N)C1 (stereo not drawn) [Example 45, (1-Methyl-1H-imidazol-2-ylmethyl)-carbamic acid 3-cyano-2-((E)-3-pyridin-3-yl-allanoylamino)-4,5,6,7-tetrahydro-benzo[b]thiophen-6-ylmethyl ester]	0.501 to 2 µM
≥ 100 µM	Cn1nccc1CNC(=O)OCC1CCc2c(sc(NC(=O)/C=C/c3cccnc3)c2C#N)C1 (stereo not drawn) [Example 46, (2-Methyl-2H-pyrazol-3-ylmethyl)-carbamic acid 3-cyano-2-((E)-3-pyridin-3-yl-allanoylamino)-4,5,6,7-tetrahydro-benzo[b]thiophen-6-ylmethyl ester]	≤ 0.501 µM

The next lines start with the compound.

SMILES	IC50 [1]	IC50 [2]
N#Cc1c(NC(=O)/C=C/c2cccnc2)sc2c1CCC(OC(=O)NCC1CCOCC1)C2 (stereo not drawn) [Example 22, (Tetrahydro-pyran-4-ylmethyl)-carbamic acid 3-cyano-2-((E)-3-pyridin-3-yl-allanoylamino)-4,5,6,7-tetrahydro-benzo[b]thiophen-6-yl ester]	≥ 100 µM	0.501 to 2 µM
N#Cc1c(NC(=O)/C=C/c2cccnc2)sc2c1CCC(OC(=O)NCCO)C2 (stereo not drawn) [Example 23, (2-Hydroxy-ethyl)-carbamic acid 3-cyano-2-((E)-3-pyridin-3-yl-allanoylamino)-4,5,6,7-tetrahydro-benzo[b]thiophen-6-yl ester]	≥ 100 µM	0.501 to 2 µM
N#Cc1c(NC(=O)/C=C/c2cccnc2)sc2c1CCC(OC(=O)NC1CCOCC1)C2 (stereo not drawn) [Example 26, (Tetrahydro-pyran-4-yl)-carbamic acid 3-cyano-2-((E)-3-pyridin-3-yl-allanoylamino)-4,5,6,7-tetrahydro-benzo[b]thiophen-6-yl ester]	≥ 100 µM	0.501 to 2 µM
CCOc1ccccc1/C=C/C(=O)Nc1sc2c(c1C#N)CCC(COC(=O)NCCO)C2 (stereo not drawn) [Example 28, (2-Hydroxy-ethyl)-carbamic acid 3-cyano-2-[(E)-3-(2-ethoxy-phenyl)-allanoylamino]-4,5,6,7-tetrahydro-benzo[b]thiophen-6-ylmethyl ester]	≥ 100 µM	0.501 to 2 µM
CCOc1ccccc1/C=C/C(=O)Nc1sc2c(c1C#N)CCC(OC(=O)NCCn1ccnc1)C2 (stereo not drawn) [Example 31, (2-Imidazol-1-yl-ethyl)-carbamic acid-3-cyano-2-[(E)-3-(2-ethoxy-phenyl)-allanoylamino]-4,5,6,7-tetrahydro-benzo[b]thiophen-6-yl ester]	≥ 10 µM	≤ 0.501 µM
N#Cc1c(NC(=O)/C=C/c2cccnc2)sc2c1CCC(OC(=O)NCc1cccnc1)C2 (stereo not drawn) [Example 35, Pyridin-3-ylmethyl-carbamic acid 3-cyano-2-((E)-3-pyridin-3-yl-allanoylamino)-4,5,6,7-tetrahydro-benzo[b]thiophen-6-yl ester]	≥ 100 µM	0.501 to 2 µM
N#Cc1c(NC(=O)/C=C/c2cccnc2)sc2c1CCC(OC(=O)NCCc1cccnc1)C2 (stereo not drawn) [Example 36, (2-Pyridin-3-yl-ethyl)-carbamic acid 3-cyano-2-((E)-3-pyridin-3-yl-allanoylamino)-4,5,6,7-tetrahydro-benzo[b]thiophen-6-yl ester]	≥ 50.1 µM	0.501 to 2 µM
Cn1cncc1CNC(=O)OC1CCc2c(sc(NC(=O)/C=C/c3cccnc3)c2C#N)C1 (stereo not drawn) [Example 38, (3-Methyl-3H-imidazol-4-ylmethyl)-carbamic acid 3-cyano-2-((E)-3-pyridin-3-yl-allanoylamino)-4,5,6,7-tetrahydro-benzo[b]thiophen-6-yl ester]	≥ 100 µM	0.501 to 2 µM
N#Cc1c(NC(=O)/C=C/c2cccnc2)sc2c1CCC(OC(=O)NCc1ncc[nH]1)C2 (stereo not drawn) [Example 39, (1H-Imidazol-2-ylmethyl)-carbamic acid 3-cyano-2-((E)-3-pyridin-3-yl-allanoylamino)-4,5,6,7-tetrahydro-benzo[b]thiophen-6-yl ester]	≥ 100 µM	0.501 to 2 µM
Cn1nccc1CNC(=O)OC1CCc2c(sc(NC(=O)/C=C/c3cccnc3)c2C#N)C1 (stereo not drawn) [Example 40, (2-Methyl-2H-pyrazol-3-ylmethyl)-carbamic acid 3-cyano-2-((E)-3-pyridin-3-yl-allanoylamino)-4,5,6,7-tetrahydro-benzo[b]thiophen-6-yl ester]	≥ 100 µM	≤ 0.501 µM
Cc1cc(CNC(=O)OC2CCc3c(sc(NC(=O)/C=C/c4cccnc4)c3C#N)C2)no1 (stereo not drawn) [Example 42, (5-Methyl-isoxazol-3-ylmethyl)-carbamic acid 3-cyano-2-((E)-3-pyridin-3-yl-allanoylamino)-4,5,6,7-tetrahydro-benzo[b]thiophen-6-yl ester]	≥ 100 µM	0.501 to 2 µM
Cn1cncc1CNC(=O)OCC1CCc2c(sc(NC(=O)/C=C/c3cccnc3)c2C#N)C1 (stereo not drawn) [Example 43, (3-Methyl-3H-imidazol-4-ylmethyl)-carbamic acid 3-cyano-2-((E)-3-pyridin-3-yl-allanoylamino)-4,5,6,7-tetrahydro-benzo[b]thiophen-6-ylmethyl ester]	≥ 100 µM	≤ 0.501 µM
Cn1cnc(CNC(=O)OCC2CCc3c(sc(NC(=O)/C=C/c4cccnc4)c3C#N)C2)c1 (stereo not drawn) [Example 44, (1-Methyl-1H-imidazol-4-ylmethyl)-carbamic acid 3-cyano-2-((E)-3-pyridin-3-yl-allanoylamino)-4,5,6,7-tetrahydro-benzo[b]thiophen-6-ylmethyl ester]	≥ 100 µM	≤ 0.501 µM
